Molecules are shown by their SMILES.

One assay has as its target D(2) dopamine receptor (Homo sapiens, UniProt P14416). Put plainly: Ability to displace [125I]sulpiride from human Dopamine receptor D2, expressed in CHO cells. The assay is classed as cell-based.
For a further assay, the target named is D(3) dopamine receptor (Homo sapiens, UniProt P35462). Put plainly: Ability to displace [125I]-sulpiride from human Dopamine receptor D3, expressed in CHO cells. Type of assay: cell-based.
Assay [1] addresses Dopamine receptors; D2 & D3 (Homo sapiens) (UniProt P14416+P35462). Nature of the assay: Ratio of human dopamine D3 receptor to that of human dopamine D2 receptor was evaluated. Type of assay: protein assay.

D(2) dopamine receptor, sequence (P14416 whole entry): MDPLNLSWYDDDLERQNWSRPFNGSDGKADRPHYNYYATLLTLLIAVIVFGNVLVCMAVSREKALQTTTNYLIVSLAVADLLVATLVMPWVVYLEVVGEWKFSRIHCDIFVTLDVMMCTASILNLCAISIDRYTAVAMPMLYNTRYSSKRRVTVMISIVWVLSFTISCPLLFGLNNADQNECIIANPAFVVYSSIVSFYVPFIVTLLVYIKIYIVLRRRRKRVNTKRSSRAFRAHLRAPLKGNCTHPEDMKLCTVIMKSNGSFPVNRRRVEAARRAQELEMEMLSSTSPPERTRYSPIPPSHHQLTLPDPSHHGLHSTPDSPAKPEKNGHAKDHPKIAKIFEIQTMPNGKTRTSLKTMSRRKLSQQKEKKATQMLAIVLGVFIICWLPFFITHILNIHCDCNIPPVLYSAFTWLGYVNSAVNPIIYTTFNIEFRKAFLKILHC
D(3) dopamine receptor, sequence (P35462 whole entry): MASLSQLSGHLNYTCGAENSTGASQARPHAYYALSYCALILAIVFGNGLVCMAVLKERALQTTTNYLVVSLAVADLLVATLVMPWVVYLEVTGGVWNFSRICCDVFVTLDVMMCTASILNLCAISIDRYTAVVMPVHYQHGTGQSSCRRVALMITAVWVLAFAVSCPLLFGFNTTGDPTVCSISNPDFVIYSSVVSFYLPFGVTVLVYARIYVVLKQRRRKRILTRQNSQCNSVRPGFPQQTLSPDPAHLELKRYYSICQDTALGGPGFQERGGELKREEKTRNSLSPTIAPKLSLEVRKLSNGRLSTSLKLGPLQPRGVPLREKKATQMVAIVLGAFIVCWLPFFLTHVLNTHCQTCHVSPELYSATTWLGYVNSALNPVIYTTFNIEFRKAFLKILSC

By Ki is commonly meant the equilibrium dissociation constant of an inhibitor or competing ligand from its target. Read a low Ki as a stronger hold on the target. Consider `COc1ccc(S(=O)(=O)C(C)C)cc1-c1ccc(CN2CCCCCC2c2ccccc2)[nH]1` (stereo unspecified), for which the Ki was 200 nM on D(2) dopamine receptor and 5.01 nM at D(3) dopamine receptor. Moreover, the Selectivity in assay [1] was 40.

Take `COc1ccc(S(=O)(=O)N2CCc3ccccc3C2)cc1-c1ccc(CN2CCCCCC2c2ccccc2)[nH]1` (stereo unspecified): the Ki was 200 nM at D(2) dopamine receptor and 2 nM at D(3) dopamine receptor. Further, the Selectivity in assay [1] was 100.

For `COc1ccc(S(=O)(=O)N(C)c2ccccc2)cc1-c1ccc(CN2CCCCCC2c2ccccc2)[nH]1` (stereo unspecified), the results for the Ki at D(2) dopamine receptor and at D(3) dopamine receptor were 631 nM and 6.31 nM, respectively. Further, in assay [1], the Selectivity was 100.

Regarding `COc1ccc(S(=O)(=O)N(C)c2ccccc2)cc1-c1ccc(CN2CCCCC[C@@H]2c2ccccc2)[nH]1`, the Ki at D(2) dopamine receptor was 501 nM; at D(3) dopamine receptor, 3.98 nM. In addition, the Selectivity in assay [1] stood at 125.

On to `COc1ccc(S(=O)(=O)N2CCCc3ccccc32)cc1-c1ccc(CN2CCCCCC2c2ccccc2)[nH]1` (stereo unspecified), for which the Ki on D(2) dopamine receptor is 1000 nM; at D(3) dopamine receptor, 6.31 nM. The Selectivity in assay [1] amounted to 150.

For the compound `COc1ccc(S(=O)(=O)Oc2ccccc2)cc1-c1ccc(CN2CCCCCC2c2ccccc2)[nH]1` (stereo unspecified), the Ki is 1000 nM on D(2) dopamine receptor and 10 nM on D(3) dopamine receptor. Further, the Selectivity in assay [1] worked out at 100.

Turning to `COc1ccc(S(=O)(=O)Nc2ccccc2)cc1-c1ccc(CN2CCCCCC2c2ccccc2)[nH]1` (stereo unspecified), the Ki was 631 nM on D(2) dopamine receptor and 79.4 nM on D(3) dopamine receptor. For the same compound, the Selectivity in assay [1] came out at 8.

Regarding `CCS(=O)(=O)c1ccc(OC)c(-c2ccc(CN3CCCCCC3c3ccccc3)[nH]2)c1` (stereo unspecified), in assay [1], the Selectivity was determined as 30.

Turning to `COc1ccc(S(N)(=O)=O)cc1-c1ccc(CN2CCCCCC2c2ccccc2)[nH]1` (stereo unspecified), the Ki on D(2) dopamine receptor is 398 nM; at D(3) dopamine receptor, 39.8 nM. For the same compound, in assay [1], the Selectivity was 10.

In the case of `CCS(=O)(=O)c1ccc(OC)c(-c2ccc(CN3CCCCC[C@@H]3c3ccccc3)[nH]2)c1`, the Ki on D(2) dopamine receptor is 25.1 nM; on D(3) dopamine receptor, 0.794 nM. Moreover, the Selectivity in assay [1] was 30.

For `COc1ccc(S(=O)(=O)N(C)c2ccccc2)cc1-c1ccc(CN2CCCCC[C@H]2c2ccccc2)[nH]1`, the figures for the inhibition constant Ki at D(2) dopamine receptor and at D(3) dopamine receptor were 1580 nM and 15.8 nM, respectively. The Selectivity in assay [1] was determined as 100.

Regarding `COc1ccc(S(=O)(=O)N2CCOCC2)cc1-c1ccc(CN2CCCCCC2c2ccccc2)[nH]1` (stereo unspecified), the Ki is 100 nM at D(2) dopamine receptor and 1.58 nM on D(3) dopamine receptor. The Selectivity in assay [1] stood at 60.

With `CCS(=O)(=O)c1ccc(OC)c(-c2ccc(CN3CCCCC[C@H]3c3ccccc3)[nH]2)c1`, the results for the Ki on D(2) dopamine receptor and on D(3) dopamine receptor were 100 nM and 3.98 nM, respectively. In assay [1], the Selectivity worked out at 25.

In the case of `CCN(Cc1ccccc1)S(=O)(=O)c1ccc(OC)c(-c2ccc(CN3CCCCCC3c3ccccc3)[nH]2)c1` (stereo unspecified), the inhibition constant Ki on D(2) dopamine receptor is 501 nM; on D(3) dopamine receptor, 6.31 nM. In assay [1], the Selectivity was 80.

For `COc1ccc(S(=O)(=O)Cc2ccccc2)cc1-c1ccc(CN2CCCCCC2c2ccccc2)[nH]1` (stereo unspecified), the Ki is 126 nM at D(2) dopamine receptor and 3.98 nM at D(3) dopamine receptor. Further, in assay [1], the Selectivity worked out at 30.

As to `COc1ccc(S(=O)(=O)N(C)C)cc1-c1ccc(CN2CCCCCC2c2ccccc2)[nH]1` (stereo unspecified), the values for the Ki at D(2) dopamine receptor and on D(3) dopamine receptor were 100 nM and 2 nM, respectively. Further, in assay [1], the Selectivity came to 50.

The values above are taken from ChEMBL document CHEMBL1129847, “2-[(substituted)phenyl]-5-[1-(2-phenylazacycloheptyl)methyl]-1H-pyrroles with high affinity and selectivity for the dopamine D3 receptor” (Bioorg Med Chem Lett, 1997).
